From article PMC4818757, “Small molecule inhibitors of the Dishevelled‐CXXC5 interaction are new drug candidates for bone anabolic osteoporosis therapy” (EMBO Molecular Medicine, 2016)
Like-named read-outs stand apart in the source and are kept apart here.

Columns and labels:
[1] = molecular target: T1, Dvl–CXXC5 interaction (Homo sapiens, UniProt O14640); assay: Dvl–CXXC5 in vitro binding assay (FITC PolyR-DBM competition)
T1 construct: plasmid DNA encoding Dvl-1247- 341 (the Dvl PDZ domain); His-tag (TEV-cleavable) (cleaved yes); made in house; host or cells: E. coli BL21 (DE3)
T1 sequence (O14640 247-341 limits assumed): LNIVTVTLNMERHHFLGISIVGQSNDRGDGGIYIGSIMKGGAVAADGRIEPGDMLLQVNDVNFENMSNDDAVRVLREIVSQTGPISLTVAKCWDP
Text: We tried to search small‐molecule drug candidates activating the Wnt/β‐catenin signaling on the basis of the previous study (Kim et al, 2015). To screen small molecules inhibiting the Dvl–CXXC5 interaction, an in vitro assay system (Fig 1A) was established using purified recombinant Dvl PDZ domain and FITC‐conjugated PolyR‐DBM (Dvl binding motif) (Kim et al, 2015). A chemical with inhibitory activity of Dvl–CXXC5 interaction competes with the FITC‐conjugated peptide for binding to Dvl PDZ domain, which results in a decrease in fluorescence intensity of the well containing the chemical (Fig 1A).
Figure 1 Identification and characterization of small molecules competing Dvl–CXXC5 binding in vitro • A A scheme for in vitro screening method of small molecules competing Dvl–CXXC5 binding. Briefly, purified Dvl PDZ domain was attached to the polystyrene surface of each well of 96‐well plates. Then, PolyR‐DBM (polyarginine‐conjugated Dvl binding motif tagged with FITC) (Kim et al, 2015) was added to each well and allowed to bind to the Dvl PDZ domain; 10 μM small‐molecule compound was added to each well, and the compounds competing with Dvl PZD‐PolyR‐DBM binding were measured by a microplate reader to screen the compounds reducing fluorescence signal. • B Screening results of compounds competing Dvl–CXXC5 interaction. Each 2 μM of the compounds was used for competing as described in Fig 1A. (n = 3) • C, D Primary calvaria cells were treated with 2 μM of each compound for 2 days. The cells were subjected to immunofluorescence analyses to visualize β‐catenin (C; green). The relative numbers of β‐catenin‐positive nuclei were counted (D). (n = 3) • E, F The calvariae from 4‐day‐old mice were cultured ex vivo for 7 days with 2 μM of each compound. Representative calvaria sections were visualized by H&E staining (E). The calvaria thicknesses were measured from the images using Image Pro software (F). (n = 3) Data Information: For B, D, and F, the data are the mean ± s.d. (error bars), and significance was assessed using unpaired Student's t‐test.
For the Dvl–CXXC5 in vitro binding assay, 100 μl of 5 mg/ml purified Dvl PDZ domain was added into each well of a 96‐well Maxibinding Immunoplate (SPL, Seoul, Korea) and incubated overnight in a 4°C chamber. […] After washing with PBS, the fluorescence of each well was measured using a Fluorstar Optima microplate reader (BGM Lab Technologie, Ortenberg, Germany). […]
a The Dvl-CXXC5 in vitro binding assay was performed with 0.1, 1, 3, 10, 30 and 100 µ M of each compound. The IC50 values were calculated using linear regression. b MC3T3E1 cells were cultured in differentiation media with 10 µM of each compound for 4 days and ALP activity levels were quantified to monitor osteogenic differentiation of the cells. […]

[2] = test system: MC3T3E1 cells; assay: Relative ALP activity in MC3T3E1 cells; format: cell-based, murine; conditions: differentiation media, 10 M of each compound, 4 days
Text: Railo et Rev: [NT] al, 2009 Fos-like antigen 1 […] et al, 2003 WNT1 inducible [NT] Railo et signaling pathway Rev: [NT] al, 2009 protein 1 (Wis p1) Activating […] transcription factor Rev: […], 4 (Atf 4) 2007 Cyclin-dependent [NT] Donovan TGFβ kinase inhibitor 1B Rev: [NT] et al, 2002 (Cdkn1b) […] membrane Rev: […], protein 1 (Emp1) 2007 8

[3] = Metabolic stability, rat liver microsomes; format: in vitro ADME
[4] = molecular target: T2, CYP1A2 (Homo sapiens, UniProt P05177); assay: in vitro; conditions: probe fluorogenic P450 substrates
T2 sequence (P05177 1-516): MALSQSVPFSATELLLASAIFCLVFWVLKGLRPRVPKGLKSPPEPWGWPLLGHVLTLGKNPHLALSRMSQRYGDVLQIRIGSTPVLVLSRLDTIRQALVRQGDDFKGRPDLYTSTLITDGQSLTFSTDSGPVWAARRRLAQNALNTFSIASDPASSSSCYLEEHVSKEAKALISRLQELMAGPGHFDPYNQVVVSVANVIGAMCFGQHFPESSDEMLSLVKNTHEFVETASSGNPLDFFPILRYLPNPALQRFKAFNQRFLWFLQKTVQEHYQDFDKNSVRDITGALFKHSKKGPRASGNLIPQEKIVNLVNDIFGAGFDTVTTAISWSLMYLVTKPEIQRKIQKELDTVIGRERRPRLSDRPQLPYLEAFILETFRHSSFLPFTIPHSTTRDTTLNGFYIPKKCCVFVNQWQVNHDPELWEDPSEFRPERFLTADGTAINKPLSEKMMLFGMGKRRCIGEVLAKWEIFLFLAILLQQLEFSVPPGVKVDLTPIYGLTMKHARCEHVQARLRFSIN

SMILES	reduction of fluorescence intensity ([1]; 2 μM compound)	IC50 ([1]; read-out: 50% inhibition concentration (IC50) of Dvl–CXXC5 interaction)	Relative ALP activity (%) [2]	Metabolic Stability (%) Rat [3]	metabolic stability (in words) [3]	IC50 ([1]; 0.1, 1, 3, 10, 30 and 100 µM of each compound, linear regression, read-out: Dvl-CXXC5 in vitro binding IC50)	IC50 for inhibition of Dvl–CXXC5 interaction, fold lower than for KY‐02061 ([1]; vs KY‐02061)	stability, fold more stable than KY‐02061 [3]	inhibition at 10 µM [4]
CCOC(=O)Cn1c(C(=O)OCC)cc2cc(OS(=O)(=O)c3ccc(C)cc3)ccc21 [KY‐02061]	43.7%	24 µM	173%	5.1 ± 2.4%	poor metabolic stability	–	–	–	–
CCOC(=O)c1cc2cc(O)ccc2n1CC(=O)NCCN1CCCCC1 [KY‐02327]	–	–	227%	11.9%	–	3.1 µM	7.7 fold	2.3 fold	0%
